This is an account of results in patent US11414384B2, “P300/CBP hat inhibitors” (Constellation Pharmaceuticals, Inc., priority 2018, dated 2022).

SMILES strings stand for the structures. Some results are limits rather than exact numbers.

The target in the first assay is p300 HAT domain (residues 1287-1666) (Homo sapiens (Human), UniProt Q09472). Briefly: p300 HAT SPA assay (scintillation proximity assay, acetylation of biotinylated H3(1-21) peptide). In kind it is biochemical. The following applies: P300 HAT SPA IC50, p300 HAT domain; average of at least 2 replicate titrations. The procedure, abridged: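 Scintillation proximity readout of acetylated biotin-H3(1-21) captured on streptavidin plates after 1.5 hr at RT; enzyme was Ni2+/anion-exchange-purified HAT domain in 20 mM Hepes pH 7.5. Inhibitor IC50s calculated from the data.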
Chain of p300 HAT domain (residues 1287-1666) (Q09472 1287-1666): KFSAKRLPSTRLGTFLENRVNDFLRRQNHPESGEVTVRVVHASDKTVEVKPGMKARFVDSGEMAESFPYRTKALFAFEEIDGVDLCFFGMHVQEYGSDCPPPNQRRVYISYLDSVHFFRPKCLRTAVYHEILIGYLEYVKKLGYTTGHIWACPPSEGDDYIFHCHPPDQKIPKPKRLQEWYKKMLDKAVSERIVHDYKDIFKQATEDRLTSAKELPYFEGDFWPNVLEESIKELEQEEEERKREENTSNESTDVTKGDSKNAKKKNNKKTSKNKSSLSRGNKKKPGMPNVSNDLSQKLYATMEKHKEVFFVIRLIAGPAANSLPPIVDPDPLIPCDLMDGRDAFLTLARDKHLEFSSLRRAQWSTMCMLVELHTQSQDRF
On the technique in general: SPA uses beads or plates that emit light when radiolabelled molecules are held near them.
By IC50 is commonly meant the concentration needed to halve the response being measured. Take `O=C(c1cn(CCO)c2ccccc12)C(NCCc1ccc(Cl)cc1)c1ccccc1` (single isomer, unassigned) [128 Isomer 1]: the half-maximal inhibitory concentration (IC50) is 42100 nM.

Staying with this assay, now noted: p300 HAT domain; average of at least 2 replicate titrations; read-out: P300 HAT SPA IC50.
For the molecule `Cc1cccc2c(C(=O)C(NC(C)Cc3ccc(Cl)cc3Cl)c3ccccc3)c[nH]c12` (single isomer, unassigned) [68 Isomer 1], the IC50 was 728 nM.

Turning to `CN1CCN(c2ccc3c(C(=O)C(NCCc4ccc(S(N)(=O)=O)cc4)c4ccccc4)c[nH]c3c2)CC1` (single isomer, unassigned) [124 Isomer 2], the IC50 was 566 nM.

Turning to `O=C(c1c[nH]c2cc(-c3cccnc3)ccc12)C(NCCc1ccc(F)cc1)c1ccccc1` (single isomer, unassigned) [81 Isomer 1], the IC50 was 12300 nM.

Consider `CCNC(=O)c1ccc2c(C(=O)C(C)NCCc3ccc(C#N)cc3)c[nH]c2c1` (single isomer, unassigned) [76 Isomer 1], for which the concentration for half-maximal inhibition (IC50) is above 5000 nM.

Regarding `Cc1ncc(-c2ccc3c(C(=O)C(NCCc4ccc(Cl)cc4)c4ccccc4)c[nH]c3c2)[nH]1` (single isomer, unassigned) [110 Isomer 1], the IC50 worked out at 2010 nM.

Turning to `Cc1ccc(-c2ccc3c(C(=O)C(NCCc4ccc(Cl)cc4)c4ccccc4)c[nH]c3c2)cn1` (single isomer, unassigned) [88 Isomer 1], the IC50 is above 30000 nM.

As to `CC(Cc1ccc(Cl)cc1)NC(C(=O)c1c[nH]c2cc(-c3cnn(C)c3)ccc12)c1ccccc1` (single isomer, unassigned) [92 Isomer 2], the IC50 was above 30000 nM.

As to `N#Cc1ccc(CCNC(C(=O)c2c[nH]c3cc(C(=O)N4CCCC4)ccc23)c2ccccc2)cc1` (single isomer, unassigned) [171 Isomer 1], the 50% inhibitory concentration (IC50) was above 5000 nM.

With `CC(Cc1ccc(Cl)cc1)NC(C(=O)c1c[nH]c2cc(-c3cnn(C)c3)ccc12)c1ccccc1` (single isomer, unassigned) [92 Isomer 4], the IC50 is 2220 nM.

For the molecule `N#Cc1ccc(CCNC(C(=O)c2c[nH]c3cc(C(=O)NC4CS(=O)(=O)C4)ccc23)c2ccccc2)cc1` (single isomer, unassigned) [166 Isomer 1], the IC50 worked out at 123 nM.

For `Cn1cc(-c2ccc3c(C(=O)C(NCCc4ccc(C(N)=O)cc4)c4ccccc4)c[nH]c3c2)cn1` (single isomer, unassigned) [139 Isomer 1], the IC50 was determined as 8290 nM.

As to `CC(CNC(C(=O)c1c[nH]c2cc(-c3cnn(C)c3)ccc12)c1ccccc1)c1ccc(Cl)cc1` (single isomer, unassigned) [91 Isomer 4], the IC50 turned out to be 134 nM.

With `NS(=O)(=O)c1ccc(CCNC(C(=O)c2c[nH]c3cc(C(F)(F)F)ccc23)c2ccccc2)cc1` (single isomer, unassigned) [1 Isomer 1], the IC50 is 14100 nM.

As for `O=C(c1c[nH]c2ccccc12)C(NCCc1cn[nH]c1)c1ccccc1` (single isomer, unassigned) [34 Isomer 1], the half-inhibitory concentration (IC50) is above 60000 nM.

With `N#Cc1ccc(CCNC(C(=O)c2c[nH]c3cc(C(=O)NC4CN(CC(F)(F)F)C4)ccc23)c2ccccc2)cc1` (single isomer, unassigned) [162 Isomer 2], the IC50 is 135 nM.

`NS(=O)(=O)c1ccc(CCNC(C(=O)c2c[nH]c3c(Cl)c(Cl)ccc23)c2ccccc2)cc1` (single isomer, unassigned) [55 Isomer 2]: the IC50 is above 30000 nM.

Regarding `Cn1cc(-c2ccc3c(C(=O)C(NCCc4ccc(C#N)cc4)c4ccccc4)c[nH]c3c2F)cn1` (single isomer, unassigned) [103 Isomer 1], the IC50 was determined as 3410 nM.

`CC(Cc1ccc(Cl)cc1)NC(C(=O)c1c[nH]c2cc(-c3cnn(C)c3)ccc12)c1ccccc1` (single isomer, unassigned) [92 Isomer 1]: the IC50 is 2100 nM.

For the molecule `O=C(c1c[nH]c2ccccc12)C(NCCN1CCOCC1)c1ccccc1` (single isomer, unassigned) [18 Isomer 2], the IC50 is above 60000 nM.

Consider `C[C@H](NC(=O)c1ccc2c(C(=O)C(NCCc3ccc(C#N)cc3)c3ccccc3)c[nH]c2c1)C(F)(F)F` (single isomer, unassigned) [169 Isomer 1], for which the IC50 is 1790 nM.

Regarding `O=C(c1c[nH]c2ccccc12)C(NCCc1ccc(Cl)c(Cl)c1)c1ccccc1` (single isomer, unassigned) [20 Isomer 2], the IC50 turned out to be 3070 nM.

`O=C(c1c[nH]c2cc(-c3ccccn3)ccc12)C(NCCc1ccc(Cl)cc1)c1ccccc1` (single isomer, unassigned) [108 Isomer 2]: the IC50 was determined as 2640 nM.

For the molecule `O=C(c1c[nH]c2cc(-c3cccnc3)ccc12)C(NCCc1ccc(Cl)cc1)c1ccccc1` (single isomer, unassigned) [90 Isomer 1], the IC50 worked out at 967 nM.

As for `O=C(c1c[nH]c2ccccc12)C(NCCc1cccc(Cl)c1)c1ccccc1` (single isomer, unassigned) [4 Isomer 1], the IC50 is above 60000 nM.

Turning to `O=C(c1c[nH]c2ccccc12)C(NCCc1cn[nH]c1)c1ccccc1` (single isomer, unassigned) [34 Isomer 2], the IC50 is 24700 nM.

In the case of `Cc1nc(C(=O)C(NCCc2ccc(C(N)=O)cc2)c2ccccc2)c2ccc(-c3cnn(C)c3)cn12` (single isomer, unassigned) [184 Isomer 2], the IC50 was 522 nM.

Consider `CCNC(=O)c1ccc2c(C(=O)C(NCCc3ccc(C#N)cc3Cl)c3ccccc3)c[nH]c2c1` (single isomer, unassigned) [71 Isomer 1], for which the IC50 was above 2000 nM.

Take `COCCn1cc(-c2ccc3c(C(=O)C(NCCc4ccc(C(N)=O)cc4)c4ccccc4)c[nH]c3c2)cn1` (single isomer, unassigned) [183 Isomer 1]: the 50% inhibitory concentration (IC50) is above 5000 nM.

Consider `CC(CNC(C(=O)c1cnn2cc(-c3cnn(C)c3)ccc12)c1ccccc1)c1ccc(C#N)cc1` (single isomer, unassigned) [102 Isomer 2], for which the IC50 worked out at 239 nM.

In the case of `Cn1cnc(-c2ccc3c(C(=O)C(NCCc4ccc(Cl)cc4)c4ccccc4)c[nH]c3c2)c1` (single isomer, unassigned) [106 Isomer 1], the IC50 turned out to be 755 nM.

Regarding `CN(C)C(=O)c1cccc2c(C(=O)C(NCCc3ccc(Cl)cc3Cl)c3ccccc3)c[nH]c12` (single isomer, unassigned) [148 Isomer 1], the IC50 was above 30000 nM.

For `CC(CNC(C(=O)c1c[nH]c2ccccc12)c1ccccc1)c1ccc(C(N)=O)cc1` (single isomer, unassigned) [141 Isomer 1], the IC50 amounted to 872 nM.

Regarding `Cn1cc(C(=O)C(NCCc2ccc(S(N)(=O)=O)cc2)c2ccccc2)c2ccccc21` (single isomer, unassigned) [17 Isomer 2], the IC50 was found to be 1850 nM.

Turning to `Cc1cccc2c(C(=O)C(NC(C)Cc3ccc(Cl)cc3Cl)c3ccccc3)c[nH]c12` (single isomer, unassigned) [68 Isomer 3], the IC50 is above 30000 nM.

Turning to `COc1ccc(CCNC(C(=O)c2c[nH]c3ccccc23)c2ccccc2)cc1` (single isomer, unassigned) [8 Isomer 1], the IC50 came out at 43200 nM.

Regarding `NS(=O)(=O)c1ccc(CCNC(C(=O)c2c[nH]c3c(Cl)c(Cl)ccc23)c2ccccc2)cc1` (single isomer, unassigned) [55 Isomer 1], the half-maximal inhibitory concentration (IC50) was 7830 nM.

`N#Cc1ccc(CCNC(C(=O)c2c[nH]c3cc(CC(=O)O)ccc23)c2ccccc2)cc1` (single isomer, unassigned) [160 Isomer 1]: the IC50 was above 5000 nM.

As for `NS(=O)(=O)c1ccc(CCNC(C(=O)c2c[nH]c3c(Cl)cccc23)c2ccccc2)cc1` (single isomer, unassigned) [15 Isomer 1], the IC50 was above 60000 nM.

`N#Cc1ccc(CCNC(C(=O)c2c[nH]c3cc(N4CCCC4)ccc23)c2ccccc2)cc1` (single isomer, unassigned) [125 Isomer 1]: the IC50 is above 2000 nM.

As for `CNC(=O)c1ccc(CCNC(C(=O)c2c[nH]c3ccccc23)c2ccccc2)cc1` (single isomer, unassigned) [134 Isomer 1], the IC50 is above 60000 nM.

In the case of `CC(Cc1ccc(C(N)=O)cc1)NC(C(=O)c1c[nH]c2ccccc12)c1ccccc1` (single isomer, unassigned) [140 Isomer 4], the IC50 was above 5000 nM.

For another assay, the system named is acetylation of chromatin at H3K18 (catalyzed by p300 and CBP) in HCT-116 cells. Put plainly: H3K18Ac MSD cellular assay. The conditions noted are these: 2 hr treatment, average of at least 2 replicate titrations. The format is cell-based. On the procedure: Select compounds were also evaluated in a H3K18Ac MSD cellular assay that measures the ability of compounds to inhibit the acetylation of chromatin at H3K18, a process catalyzed by p300 and CBP. In a typical experiment the p300 HAT inhibitory activity inside cells of the compounds described herein was determined in accordance with the following experimental method. 20 k HCT-116 cells per well are plated in 75 μL RPMI+10% FBS media the night before treatment. Compounds plated in DMSO at 4× final concentration are resuspended in 30 μL RPMI+10% FBS, then 25 μL is combined with corresponding wells containing cells. Treated cells are incubated for 2 hr at 37° C., then lysed in 500 μL final volume and frozen at −80° C. MSD plates (Meso Scale Discovery) are coated overnight at 4° C. with 60 μL 1:500α-total histone antibody (Millipore MAB3422) in PBS. Plates are then blocked with 5% BSA in TBST shaking at RT for 1 hr, washed, and 30 μL lysate added to each well for 2 hr shaking at RT. Plates are washed and 25 μL 1:216α-H3K18ac antibody (CST 9675) in PBS added, then incubated for 1 hr shaking at RT. Plates are washed again, then 25 μL 1:1000 Sulfo-Tag goat a-rabbit antibody (Meso Scale Discovery R32Ab-1) in PBS is added for 1 hr shaking at RT. Plates are washed once more, then 150 μL 1× Read Buffer (MSD #R92TD-3) is added to all wells and read on MSD SECTOR Imager 2400 using the conventional read setup.
In general, EC50 refers to the concentration needed to bring the measured effect to its halfway point. Higher therefore signals a need for much substance. As for `Cn1cc(-c2ccc3c(C(=O)C(NCCc4ccc(C#N)cc4)c4ccccc4)cnn3c2)cn1` (single isomer, unassigned) [79 Isomer 2], the EC50 came to 60 nM.

Regarding `Cn1cc(-c2ccc3c(C(=O)C(NCCc4ccc(C#N)cc4)c4ccccc4)cnn3c2)cn1` (single isomer, unassigned) [79 Isomer 1], the midpoint of the response, the EC50, lay at 366 nM.

Staying with this assay, now noted: Homo sapiens, HCT-116, 2 h, 2 hr treatment, average of at least 2 replicate titrations.
For `Cc1cccc2c(C(=O)C(NC(C)Cc3ccc(Cl)cc3Cl)c3ccccc3)c[nH]c12` (single isomer, unassigned) [68 Isomer 1], the EC50 came to 666 nM.

As for `CN1CCN(c2ccc3c(C(=O)C(NCCc4ccc(S(N)(=O)=O)cc4)c4ccccc4)c[nH]c3c2)CC1` (single isomer, unassigned) [124 Isomer 2], it took 429 nM to reach a half-maximal effect (EC50).

In turn, `Cn1cc(-c2ccc3c(C(=O)C(NCCc4ccc(C#N)cc4)c4ccccc4)c[nH]c3c2)cn1` (single isomer, unassigned) [84 Isomer 2] yielded an EC50 of 37.5 nM.
